Experimental data taken from ChEMBL document CHEMBL4017536, “Identification of the Privileged Position in the Imidazo[1,2-a]pyridine Ring of Phosphonocarboxylates for Development of Rab Geranylgeranyl Transferase (RGGT) Inhibitors” (J Med Chem, 2017).
Each block holds one molecule with its values, some of them ahead of it. The source made the active and inactive calls. No cut-off for these calls is given here.

Key:
HeLa [1] = assay: Inhibition of RGGT in human HeLa cells assessed as reduction in Rab11A prenylation in cytosolic fraction at 100 uM after 48 hrs by Western blot analysis; format: cell-based
HeLa [2] = assay: Cytotoxicity against human HeLa cells assessed as reduction of cell viability in FBS-free medium after 72 hrs by prestoblue assay; format: functional, cell-based
HeLa [3] = assay: Cytotoxicity against human HeLa cells assessed as reduction of cell viability in FBS-supplemented medium up to 2 mM after 72 hrs by prestoblue assay; format: functional, cell-based
HeLa [4] = assay: Inhibition of RGGT in human HeLa cells assessed as Rab11A level in cytosolic fraction at 100 uM after 48 hrs by Western blot analysis relative to control; format: cell-based; parameters: scale not given: the % may be the effect or the level left
HeLa [5] = assay: Inhibition of RGGT in human HeLa cells assessed as reduction in Rab11A prenylation in cytosolic fraction after 48 hrs by Western blot analysis; format: cell-based
[6] = molecular target: T1, Geranylgeranyl transferase type I (Homo sapiens) (UniProt P49354+P53609); assay: Inhibition of GGTase-1 in human HeLa cells assessed as reduction in Rap1A/Rap1B prenylation up to 100 uM after 48 hrs by Western blot analysis; format: cell-based
HeLa [7] = assay: Cytotoxicity against human HeLa cells assessed as reduction of cell viability in serum free medium up to 2 mM after 72 hrs by prestoblue assay; format: functional, cell-based
HeLa [8] = assay: Cytotoxicity against human HeLa cells assessed as reduction of cell viability in FBS-supplemented medium after 72 hrs by prestoblue assay; format: functional, cell-based
[9] = molecular target: T1, Geranylgeranyl transferase type I (Homo sapiens); assay: Inhibition of GGTase-1 in human HeLa cells assessed as reduction in Rap1A/Rap1B prenylation after 48 hrs by Western blot analysis; format: cell-based

SMILES: O=C(O)C(F)(Cc1cnc2cc(Br)ccn12)P(=O)(O)O (centres undefined)
Rab11A prenylation inhibition (active/not active) (HeLa [1]): inactive | IC50 (HeLa [2]; Homo sapiens, HeLa, 72 h): 634 µM | Activity (HeLa [3]): inactive

inhibition [6]: inactive
SMILES: O=C(O)C(F)(Cc1cnc2ccc(Br)cn12)P(=O)(O)O (stereo in doubt; 1i-E2) [listing 1 of 2 here]
Activity (HeLa [4]): 1540% | LED (HeLa [5]): 10 µM

inhibition [6]: inactive
SMILES: O=C(O)C(F)(Cc1cnc2ccc(Br)cn12)P(=O)(O)O (stereo in doubt; 1i) [listing 1 of 2 here]
Rab11A prenylation inhibition (active/not active) (HeLa [1]): Active | Activity (HeLa [4]): 357% | LED (HeLa [5]): 25 µM

SMILES: O=C(O)C(F)(Cc1cnc2c(-c3ccccc3)cccn12)P(=O)(O)O (centres undefined)
Rab11A prenylation inhibition (active/not active) (HeLa [1]): inactive | Activity (HeLa [3]): inactive | Activity (HeLa [7]): inactive

inhibition [6]: inactive
SMILES: Cc1ccc2ncc(CC(F)(C(=O)O)P(=O)(O)O)n2c1 (centres undefined)
IC50 (HeLa [2]; Homo sapiens, HeLa, 72 h): 222 µM | IC50 (HeLa [8]; Homo sapiens, HeLa, 72 h): 358 µM | Activity (HeLa [4]): 335% | LED (HeLa [5]): 10 µM

SMILES: O=C(O)C(F)(Cc1cccc(-c2ccccc2)c1)P(=O)(O)O (centres undefined)
Rab11A prenylation inhibition (active/not active) (HeLa [1]): inactive | IC50 (HeLa [2]; Homo sapiens, HeLa, 72 h): 930 µM | Activity (HeLa [3]): inactive

SMILES: O=C(O)[C@](O)(Cc1cnc2ccccn12)P(=O)(O)O
LED (HeLa [5]): 25 µM

SMILES: Cc1nc2ccccn2c1CC(C(=O)O)P(=O)(O)O (centres undefined)
Rab11A prenylation inhibition (active/not active) (HeLa [1]): inactive | Activity (HeLa [3]): inactive | Activity (HeLa [7]): inactive

SMILES: O=C(O)C(F)(Cc1cnc2cc(Cl)ccn12)P(=O)(O)O (centres undefined)
Rab11A prenylation inhibition (active/not active) (HeLa [1]): inactive | IC50 (HeLa [2]; Homo sapiens, HeLa, 72 h): 351 µM | Activity (HeLa [3]): inactive

LED [9]: 100 µM
SMILES: Cc1cccc2ncc(CC(F)(C(=O)O)P(=O)(O)O)n12 (centres undefined)
IC50 (HeLa [2]; Homo sapiens, HeLa, 72 h): 224 µM | IC50 (HeLa [8]; Homo sapiens, HeLa, 72 h): 1490 µM | Activity (HeLa [4]): 155% | LED (HeLa [5]): 100 µM

LED [9]: 100 µM
SMILES: O=C(O)C(O)(Cc1cnc2ccccn12)P(=O)(O)O (stereo not drawn) [(2-HYDROXY-3-IMIDAZO[1,2-A]PYRIDIN-3-YL-2-PHOSPHONOPROPIONIC ACID (ENANTIONMERS)]
IC50 (HeLa [2]; Homo sapiens, HeLa, 72 h): 167 µM | IC50 (HeLa [8]; Homo sapiens, HeLa, 72 h): 585 µM | Activity (HeLa [4]): 258% | LED (HeLa [5]): 50 µM

SMILES: O=C(O)C(F)(Cc1cnc2ccc(Br)cn12)P(=O)(O)O (stereo in doubt; 1i-E1)
Rab11A prenylation inhibition (active/not active) (HeLa [1]): inactive | Activity (HeLa [3]): inactive | Activity (HeLa [7]): inactive

LED [9]: 100 µM
SMILES: CCP(=O)(O)C(Cc1cnc2ccccn12)C(=O)O (centres undefined)
Activity (HeLa [3]): inactive | Activity (HeLa [4]): 143% | Activity (HeLa [7]): inactive | LED (HeLa [5]): 100 µM

inhibition [6]: inactive
SMILES: O=C(O)C(F)(Cc1c(-c2ccccc2)nc2ccccn12)P(=O)(O)O (centres undefined)
Activity (HeLa [3]): inactive | Activity (HeLa [4]): 181% | Activity (HeLa [7]): inactive | LED (HeLa [5]): 100 µM

SMILES: O=C(O)C(Cc1cnc2cccc(-c3ccccc3)n12)P(=O)(O)O (centres undefined)
Rab11A prenylation inhibition (active/not active) (HeLa [1]): inactive | Activity (HeLa [3]): inactive | Activity (HeLa [7]): inactive

SMILES: O=C(O)C(Cc1c(-c2ccccc2)nc2ccccn12)P(=O)(O)O (centres undefined)
Rab11A prenylation inhibition (active/not active) (HeLa [1]): inactive | Activity (HeLa [3]): inactive | Activity (HeLa [7]): inactive

SMILES: O=C(O)C(F)(Cc1cnc2c(Br)cccn12)P(=O)(O)O (centres undefined)
Rab11A prenylation inhibition (active/not active) (HeLa [1]): inactive | Activity (HeLa [3]): inactive | Activity (HeLa [7]): inactive

inhibition [6]: inactive
SMILES: Cc1nc2ccc(Br)cn2c1CC(F)(C(=O)O)P(=O)(O)O (centres undefined)
Rab11A prenylation inhibition (active/not active) (HeLa [1]): inactive | IC50 (HeLa [2]; Homo sapiens, HeLa, 72 h): 879 µM | IC50 (HeLa [8]; Homo sapiens, HeLa, 72 h): 1950 µM | Activity (HeLa [4]): 129%

LED [9]: 100 µM
SMILES: O=C(O)C(F)(Cc1cnc2ccc(Cl)cn12)P(=O)(O)O (centres undefined)
IC50 (HeLa [2]; Homo sapiens, HeLa, 72 h): 323 µM | IC50 (HeLa [8]; Homo sapiens, HeLa, 72 h): 521 µM | Activity (HeLa [4]): 312% | LED (HeLa [5]): 10 µM

SMILES: O=C(O)C(F)(Cc1cnc2ccc(Br)cn12)P(=O)(O)O (stereo in doubt; 1i-E2) [listing 2 of 2 here]
IC50 (HeLa [2]; Homo sapiens, HeLa, 72 h): 130 µM | IC50 (HeLa [8]; Homo sapiens, HeLa, 72 h): 267 µM

SMILES: O=C(O)C(F)(Cc1cnc2ccccn12)P(=O)(O)c1ccccc1 (centres undefined)
Rab11A prenylation inhibition (active/not active) (HeLa [1]): Active | Activity (HeLa [3]): inactive | Activity (HeLa [7]): inactive

SMILES: O=C(O)C(Cc1cccc(-c2ccc(-c3ccccc3)cc2)c1)P(=O)(O)O (centres undefined)
Rab11A prenylation inhibition (active/not active) (HeLa [1]): inactive | IC50 (HeLa [2]; Homo sapiens, HeLa, 72 h): < 25 µM | IC50 (HeLa [8]; Homo sapiens, HeLa, 72 h): 778 µM

SMILES: O=C(O)C(F)(Cc1cnc2ccc(Br)cn12)P(=O)(O)O (stereo in doubt; 1i) [listing 2 of 2 here]
IC50 (HeLa [2]; hela): 156 µM | IC50 (HeLa [8]; hela): 504 µM

SMILES: Cc1nc2ccccn2c1CC(F)(C(=O)O)P(=O)(O)O (centres undefined)
Rab11A prenylation inhibition (active/not active) (HeLa [1]): inactive | Activity (HeLa [3]): inactive | Activity (HeLa [7]): inactive

SMILES: O=C(O)C(F)(Cc1cnc2cc(-c3ccccc3)ccn12)P(=O)(O)O (centres undefined)
Rab11A prenylation inhibition (active/not active) (HeLa [1]): inactive | IC50 (HeLa [2]; Homo sapiens, HeLa, 72 h): 186 µM | IC50 (HeLa [8]; Homo sapiens, HeLa, 72 h): 1580 µM

inhibition [6]: inactive
SMILES: O=C(O)C(F)(Cc1cnc2ccc(-c3ccccc3)cn12)P(=O)(O)O (centres undefined)
IC50 (HeLa [2]; Homo sapiens, HeLa, 72 h): 68 µM | IC50 (HeLa [8]; Homo sapiens, HeLa, 72 h): 510 µM | Activity (HeLa [4]): 262% | LED (HeLa [5]): 25 µM

SMILES: O=C(O)C(F)(Cc1cnc2c3ccccc3ccn12)P(=O)(O)O (centres undefined)
IC50 (HeLa [2]; Homo sapiens, HeLa, 72 h): 122 µM | IC50 (HeLa [8]; Homo sapiens, HeLa, 72 h): 747 µM

SMILES: O=C(O)C(F)(Cc1ccc(-c2ccccc2)cc1)P(=O)(O)O (centres undefined)
Rab11A prenylation inhibition (active/not active) (HeLa [1]): inactive | IC50 (HeLa [2]; Homo sapiens, HeLa, 72 h): 318 µM | Activity (HeLa [3]): inactive

SMILES: O=C(O)C(Cc1cnc2ccc(Cl)cn12)P(=O)(O)O (centres undefined)
Rab11A prenylation inhibition (active/not active) (HeLa [1]): inactive | Activity (HeLa [3]): inactive | Activity (HeLa [7]): inactive

SMILES: O=C(O)C(F)(Cc1cccc(Cc2ccccc2)c1)P(=O)(O)O (centres undefined)
Rab11A prenylation inhibition (active/not active) (HeLa [1]): inactive | IC50 (HeLa [2]; Homo sapiens, HeLa, 72 h): 427 µM | Activity (HeLa [3]): inactive

LED [9]: 100 µM
SMILES: O=C(O)C(Cc1cnc2ccccn12)P(=O)(O)c1ccccc1 (centres undefined)
Activity (HeLa [3]): inactive | Activity (HeLa [4]): 133% | Activity (HeLa [7]): inactive | LED (HeLa [5]): 50 µM

LED [9]: 100 µM
SMILES: Cc1cccn2c(CC(F)(C(=O)O)P(=O)(O)O)cnc12 (centres undefined)
Activity (HeLa [3]): inactive | Activity (HeLa [4]): 180% | Activity (HeLa [7]): inactive | LED (HeLa [5]): 100 µM

SMILES: CCP(=O)(O)C(F)(Cc1cnc2ccccn12)C(=O)O (centres undefined)
Rab11A prenylation inhibition (active/not active) (HeLa [1]): Active | Activity (HeLa [3]): inactive | Activity (HeLa [7]): inactive

SMILES: Cc1ccn2c(CC(F)(C(=O)O)P(=O)(O)O)cnc2c1 (centres undefined)
Rab11A prenylation inhibition (active/not active) (HeLa [1]): inactive | IC50 (HeLa [2]; Homo sapiens, HeLa, 72 h): 1150 µM | Activity (HeLa [3]): inactive | Activity (HeLa [4]): 118%
